In paper PMC5147005 (The Journal of Cell Biology, 2016):

Assays:
[1] = biological target: T1, MFN1-MGD (minimal GTPase domain of human MFN1) (Homo sapiens, UniProt Q8IWA4, DEL365-693); test: isothermal titration calorimetry; assay type: binding
T1 sequence (Q8IWA4 1-364): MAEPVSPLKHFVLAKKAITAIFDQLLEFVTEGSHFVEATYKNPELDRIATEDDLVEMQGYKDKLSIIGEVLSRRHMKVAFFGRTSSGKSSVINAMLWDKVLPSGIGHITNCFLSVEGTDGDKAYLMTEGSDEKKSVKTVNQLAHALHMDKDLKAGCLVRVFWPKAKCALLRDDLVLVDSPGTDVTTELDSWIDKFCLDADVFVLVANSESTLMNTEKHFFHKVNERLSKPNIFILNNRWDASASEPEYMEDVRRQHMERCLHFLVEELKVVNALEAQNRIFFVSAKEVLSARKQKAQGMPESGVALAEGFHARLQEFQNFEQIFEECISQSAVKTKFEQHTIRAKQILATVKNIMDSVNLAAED
T1 sequence (Q8IWA4 694-741): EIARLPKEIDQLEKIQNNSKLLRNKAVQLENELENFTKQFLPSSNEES

AUC = biological target: the molecule itself; test: AUC

| Molecule | Kd [1] | stoichiometry N (AUC) |
| --- | --- | --- |
| Nc1nc2c(ncn2[C@@H]2O[C@H](COP(=O)(O)OP(=O)(O)O)[C@@H](O)[C@H]2O)c(=O)[nH]1 [GDP] | 91.7 µM |  |
| human MFN1 minimal GTPase domain (MGD), wild type (domain or fragment) MAEPVSPLKHFVLAKKAITAIFDQLLEFVTEGSHFVEATYKNPELDRIATEDDLVEMQGYKDKLSIIGEVLSRRHMKVAFFGRTSSGKSSVINAMLWDKVLPSGIGHITNCFLSVEGTDGDKAYLMTEGSDEKKSVKTVNQLAHALHMDKDLKAGCLVRVFWPKAKCALLRDDLVLVDSPGTDVTTELDSWIDKFCLDADVFVLVANSESTLMNTEKHFFHKVNERLSKPNIFILNNRWDASASEPEYMEDVRRQHMERCLHFLVEELKVVNALEAQNRIFFVSAKEVLSARKQKAQGMPESGVALAEGFHARLQEFQNFEQIFEECISQSAVKTKFEQHTIRAKQILATVKNIMDSVNLAAEDGSGSGSGGSEIARLPKEIDQLEKIQNNSKLLRNKAVQLENELENFTKQFLPSSNEES |  | 2 |
